Source: patent US20200230205A1, “COMPOSITIONS AND METHODS FOR TREATING MYELIN DISORDERS” (CASE WESTERN RESERVE UNIVERSITY, priority 2017, published 2020)

Tests used:
Type in all cases: cell-based, mouse
aggrecan (CS56) = assay: CSPG degradation by OPC conditioned media (CS56 spot quantification and western blot of aggrecan)
Description: CSPG gradients were prepared as described previously (Tom, V. J., et al. Studies on the Development and Behavior of the Dystrophic Growth Cone, the Hallmark of Regeneration Failure, in an In vitro Model of the Glial Scar and after Spinal Cord Injury.). 24-well glass coverslip were coated with poly-L-lysine and nitrocellulose, and a mixture of 700 μg/mL aggrecan (A1960 Sigma) and 10 μg/mL laminin (11243217001 Sigma) spotted on the coated coverslip. After drying, coated coverslips were then incubated with laminin at 37° C. for 3h. Purified OPCs were plated at a density of 10,000/coverslip and cultured in DMEM/F12 medium containing with N2, PDGF (20 ng/ml), FGF (20 ng/ml), NT-3 (5 ng/ml), CNTF (O1 ng/ml), Glutamine (200 mM). Coverslips were stained with CS-56 (C8035, Sigma, 1:500) and O4 antibodies (Hybridoma Core Cleveland Clinic, 1:10). O4-positive cells crossing the aggrecan border were counted for each spot. For CSPG gradient quantification, 1×10^6 OPCs were plated per well on PLL, 1 μg/mL laminin, and 2 μg/mL aggrecan coated 6-well plates. OPCs treated with vehicle, 2.5 μM ISP, or 2.5 μM SISP for 2 days at 37° C. CM was harvested and incubated with freshly made spots. Spots were incubated with CM for 2 days at 37° C. then stained with CS-56 and laminin (L9393, Sigma, 1:1000) antibodies and consistently imaged. Using ImageJ software (NIH), pixel intensities of the CS-56 or laminin spot rims were quantified using the same ROI. For cultured spinal cord explant, the spinal cords of cervical and thoracic of P1 mouse pups were chopped into 1-2 mm tissue pieces and transferred to the coverslip. Explants were cultured in DMEM/F12 medium with 15% FBS (Hyclone), O1 ng/ml PDGF (Sigma) and N2 supplement (Invitrogen). For ISP treatment, 2.5 uM ISP was added to the media at the time of plating. 25 μM GM6001 (2983, Tocris), 100 nM MMP-2 inhibitor (444244, Calbiochem), and/or 2.5 μM ISP or SISP was used.
CM was harvested from 1×10^6 OPCs incubated on PLL, 1 μg/mL laminin, and 2 μg/mL aggrecan coated 6-well plates. OPCs were treated with vehicle, 2.5 μM ISP, or 2.5 μM SISP in conjunction with 10 μg/mL Exo1 (ab120292, Abcam), or 25 μM GM6001 (364205, Calbiochem) for 2 days at 37° C. […] CM of each cell-strained group was incubated with 20 μg/mL aggrecan and/or 10 μg/mL laminin for 2 hours in lmL Eppendorf tubes at 37° C. As a positive control, OPC media was incubated with aggrecan and incubated in the same fashion. Western blots were then performed as described below with incubation against CS-56 and/or laminin antibodies.

[1] = test system: oligodendrocyte progenitor cells (OPCs); assay: Ki-67 proliferation and TUNEL apoptosis of OPCs on aggrecan/laminin
Description: To assess proliferation, OPCs were plated on 24-well coverslips that were precoated with PLL, 1 μg/mL laminin, and 2 μg/mL aggrecan. OPCs were treated with vehicle, 2.5 μM ISP or SISP immediately upon plating for 2 days at 37° C. Coverslips were fixed and stained using the same method described in the immunocytochemistry section with Ki-67 (550609, BD Pharmingen, 1:500) and O4 (1:10). Coverslips were imaged and counted. To assess apoptosis, OPCs were cultured in the same fashion and incubated with vehicle or 1 μg/mL LPC for 2 hours at 2 days following vehicle, 2.5 μM ISP or SISP incubation. Coverslips were then fixed with PFA and methanol then stained using APO-BrdU TUNEL assay kit (A23210, ThermoFisher) and guidelines with an O/N incubation of the primary antibody at RT. Coverslips were additionally costained with DAPI (D9542, Sigma, 1:10,000) then imaged and counted.

[2] = test system: oligodendrocyte progenitor cells (OPCs); assay: OPC maturation and process outgrowth on CSPGs (MBP footprint)
Description: OPCs were prepared from newborn C57BL/6 mice as described previously (Luo, F., et al. The Activators of Cyclin-Dependent Kinase 5 p35 and p39 Are Essential for Oligodendrocyte Maturation, Process Formation, and Myelination. J. Neurosci. 36, 3024-3037 (2016).). Cell culture plates were pre-coated with IgM (10 jpg/ml, Millipore) in 50 mM Tris-HCl and followed primary mouse antibody A2B5. Dissociated cells were incubated in the pre-coated culture dishes for 30 min at 37° C. and then non-adherent cells were gently removed. A2B5+ OPCs were released by 0.05% trypsin in DMEM at a purify of ˜96%. Purified OPC cells were expanded in DMEM/F12 medium supplemented with N2, 20 ng/ml PDGF, 20 ng/mlFGF, 5 ng/mlNT-3, 10 ng/ml CNTF, Glutamine (200 mM).
For MMP-2/04 staining, OPCs were plated onto 24-well coverslips that were precoated with PLL, 1 μg/mL laminin, and 2 μg/mL aggrecan and incubated with vehicle or 2.5 μM ISP for 2 days at 37° C. Cultured OPC or OL cells were fixed in 4% PFA and followed blocking in PBST solution (10% normal goat serum and 0.2% Triton-X100 in PBS). Diluted primary antibodies were incubated with samples overnight at 4° C. and followed by appropriate secondary antibody goat anti-mouse or anti-rabbit IgM or IgG conjugated with Alexa Fluor 488 or 594 (1:500, Invitrogen). […]

Compound | CS56 spot degradation (aggrecan (CS56); 25 μM GM6001 or 100 nM OA-Hy with 2.5 μM ISP) | aggrecan GAG digestion (CS56 immunoblot) (aggrecan (CS56); Exo1 10 μg/mL, GM6001 25 μM or OA-Hy 100 nM with 2.5 μM ISP) | apoptosis (TUNEL) following LPC treatment ([1]; 100 nM OA-Hy with ISP, LPC 1 μg/mL 2 hours, vs LPC-ISP) | TUNEL+ cells/total cells ([1]; 100 nM OA-Hy, 2 days in vitro, no LPC) | MBP footprint ([2]; 100 nM OA-Hy, OPCs on aggrecan/laminin, vs ISP treatment alone) | CS56 immunoblot of aggrecan incubated with OPC CM (aggrecan (CS56); 2.5 μM ISP, aggrecan 20 μg/mL) | CS56 expression of aggrecan/laminin spots (aggrecan (CS56); CM of OPCs treated with 2.5 μM ISP, vs vehicle, SISP and no cell control) | CS56 band, western blot (aggrecan (CS56); ISP at 2.5 and 5 μM doses vs control) | aggrecan digestion, dependence on ISP dose (western blot) (aggrecan (CS56); varying doses of ISP, aggrecan 20 μg/mL, 2 hours) | OPC proliferation (Ki67) ([1]; 2.5 μM peptide, 2 div, laminin 1 and aggrecan 2 μg/mL, vs control) | OPC death (TUNEL) after LPC challenge ([1]; LPC 1 μg/mL, 2 hours, 2.5 μM ISP) | percentage of apoptotic cells (TUNEL) ([1]; OPCs on low laminin and aggrecan, 2.5 μM ISP) | process outgrowth and maturation of OPCs grown on CSPGs (MBP+ footprints) ([2]; ISP vs vehicle on CSPGs)
CCCCCCCC/C=C\CCCCCCCC(=O)NO [OA-Hy, reference compound] | additionally rescued CS56 spot degradation | partially rescued | increased apoptosis | did not significantly increase | decreased MBP footprint significantly |  |  |  |  |  |  |  | 
GRKKRRQRRRCDMAEHMERLKANDSLKLSQEYESI [ISP] |  |  |  |  |  | significant CS56 degradation | significantly reduced CS56 expression | significant ISP-treated CS56 degradation | dose-dependent manner | no significant differences | decreased OPC death | decreased the percentage of apoptotic cells | largely rescued
